Assay results reported in patent US6869957B1, “Non-peptide tachykinin receptor antagonists” (Eli Lilly and Company, priority 1993, dated 2005).

Columns and labels:
[1] = target: T1, NK-1 receptor (Homo sapiens, UniProt P25103); assay: NK-1 Receptor Binding Assay (125I-labeled substance P, IM9 cells); conditions: for IC50: inhibits fifty percent of binding of 125I-substance P to IM9 cells
T1 construct: endogenous in cells; host or cells: IM9 cells (human cell line), whole cells
Experimental: (§1) The biological activity of the compounds of the present invention was evaluated employing an initial screening assay which rapidly and accurately measured the binding of the tested compound to known NK-1 and NK-2 receptor sites. Assays useful for evaluating tachykinin receptor antagonists are well known in the art.
NK-1 Receptor Binding Assay
Radioreceptor binding assays were performed using a derivative of a previously published protocol.
The IM9 cell line is a well-characterized and readily available human cell line.
The reaction was terminated by filtration through a glass fiber filter harvesting system using filters previously soaked for 20 minutes in 0.1% polyethylenimine. Specific binding of labeled substance P was determined in the presence of 20 nM unlabeled ligand.

[2] = target: T2, human NK-2 receptor (Homo sapiens, UniProt P21452); assay: NK-2 Receptor Binding Assay ([125I]iodohistidyl-neurokinin A, CHO-hNK-2R membranes); conditions: for IC50: inhibits fifty percent of binding of [125I]iodohistidyl-neurokinin A to CHO-hNK-2R membranes
T2 construct: expressed in transfected cells; host or cells: CHO-hNK-2R cells (CHO-derived), membrane preparation
T2 sequence (P21452 1-398): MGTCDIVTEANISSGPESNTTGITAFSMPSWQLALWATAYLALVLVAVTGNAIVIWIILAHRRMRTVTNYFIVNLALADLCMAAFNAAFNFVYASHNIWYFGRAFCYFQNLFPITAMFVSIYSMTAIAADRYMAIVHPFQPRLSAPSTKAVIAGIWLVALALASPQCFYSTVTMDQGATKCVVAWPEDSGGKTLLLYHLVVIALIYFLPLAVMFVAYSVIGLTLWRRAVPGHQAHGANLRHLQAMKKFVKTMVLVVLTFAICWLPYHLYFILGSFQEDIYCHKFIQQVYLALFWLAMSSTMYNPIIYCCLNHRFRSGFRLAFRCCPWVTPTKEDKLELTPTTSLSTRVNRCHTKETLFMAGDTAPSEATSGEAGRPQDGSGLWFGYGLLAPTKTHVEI
Experimental: as §1, with “art. See. e.g., J. Jukic, et al., Life Sciences, 49:1463-1469 (1991); N. Kucharczyk, et al., Journal of Medicinal Chemistry, 36:1654-1661 (1993); N. Rouissi, et al., Biochemical and Biophysical Research Communications, 176:894-901 (1991).” for “art.”
NK-2 Receptor Binding Assay
The CHO-hNK-2R cells, a CHO-derived cell line transformed with the human NK-2 receptor, expressing about 400,000 such receptors per cell, were grown in 75 cm^2 flasks or roller bottles in minimal essential medium (alpha modification) with 10% fetal bovine serum. The gene sequence of the human NK-2 receptor is given in N. P. Gerard, et al., Journal of Biological Chemistry, 265:20455-20462 (1990).
For preparation of membranes, 30 confluent roller bottle cultures were dissociated by washing each roller bottle with 10 ml of Dulbecco's phosphate buffered saline (PBS) without calcium and magnesium, followed by addition of 10 ml of enzyme-free cell dissociation solution (PBS-based, from Specialty Media, Inc.). After an additional 15 minutes, the dissociated cells were pooled and centrifuged at 1,000 RPM for 10 minutes in a clinical centrifuge. Membranes were prepared by homogenization of the cell pellets in 300 ml 50 mM Tris buffer, pH 7.4 with a Tekma® homogenizer for 10-15 seconds, followed by centrifugation at 12,000 RPM (20,000×g) for 30 minutes using a Beckman JA-14® rotor. The pellets were washed once using the above procedure. and the final pellets were resuspended in 100-120 ml 50 mM Tris buffer, pH 7.4, and 4 ml aliquots stored frozen at −70° C. The protein concentration of this preparation was 2 mg/ml.
For the receptor binding assay, one 4-ml aliquot of the CHO-hNK-2R membrane preparation was suspended in 40 ml of assay buffer containing 50 mM Tris, pH 7.4, 3 mM manganese chloride, 0.02% bovine serum albumin (BSA) and 4 μg/ml chymostatin. A 200 μl volume of the homogenate (40 μg protein) was used per sample. The radioactive ligand was [^125I]iodohistidyl-neurokinin A (New England Nuclear, NEX-252), 2200 Ci/mmol. The ligand was prepared in assay buffer at 20 nCi per 100 μl; the final concentration in the assay was 20 pM. Non-specific binding was determined using 1 μM eledoisin. Ten concentrations of eledoisin from 0.1 to 1000 nM were used for a standard concentration-response curve.
All samples and standards were added to the incubation in 10 μl dimethylsulfoxide (DMSO) for screening (single dose) or in 5 μl DMSO for IC50 determinations. The order of additions for incubation was 190 or 195 μl assay buffer, 200 μl homogenate, 10 or 5 μl sample in DMSO, 100 μl radioactive ligand. The samples were incubated 1 hr at room temperature and then filtered on a 48 well Brandel cell harvester through GF/B filters which had been presoaked for two hours in 50 mM Tris buffer, pH 7.7, containing 0.5% BSA. The filter was washed 3 times with approximately 3 ml of cold 50 mm Tris buffer, pH 7.7. The filter circles were then punched into 12×75 mm polystyrene tubes and counted in a gamma counter.

T1 sequence (P25103 whole entry): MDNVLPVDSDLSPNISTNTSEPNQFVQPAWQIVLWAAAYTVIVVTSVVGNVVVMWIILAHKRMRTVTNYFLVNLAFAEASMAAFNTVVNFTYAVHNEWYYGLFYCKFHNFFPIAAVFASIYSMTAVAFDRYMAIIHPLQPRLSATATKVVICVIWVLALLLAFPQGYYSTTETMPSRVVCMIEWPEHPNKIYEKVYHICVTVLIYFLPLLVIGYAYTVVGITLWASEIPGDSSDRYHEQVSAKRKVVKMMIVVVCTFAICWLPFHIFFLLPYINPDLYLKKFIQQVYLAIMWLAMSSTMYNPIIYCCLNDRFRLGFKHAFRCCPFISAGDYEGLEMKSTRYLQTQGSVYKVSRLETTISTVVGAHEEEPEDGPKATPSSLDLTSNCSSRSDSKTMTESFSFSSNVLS

Compound	IC50 [2]	IC50 [1]	further results
COc1ccccc1CN(CC(Cc1c[nH]c2ccccc12)NC(C)=O)C(=O)CN1CCN(c2ccccc2)CC1 (stereo not drawn) [Example 107]	420 nM		NK-1 percent inhibition of binding ([1]; @ 1 μM): 74% @
COc1ccccc1CN(CC(Cc1c[nH]c2ccccc12)NC(C)=O)C(C)=O (stereo not drawn) [Example 106]		68 nM	inhibition at 10 µM ([2]; @ 10 μM, read-out: NK-2 percent inhibition of binding): 33%
CC(NCC(Cc1c[nH]c2ccccc12)NC(=O)CN1CCC(N2CCCCC2)CC1)c1ccccc1 (stereo not drawn) [Example 101]	6000 nM	97 nM	
CC(C)(C)OC(=O)NCC(Cc1c[nH]c2ccccc12)NC(=O)CN1CCN(c2ccccc2)CC1 (stereo not drawn) [Example 151, 1-t-butoxycarbonylamino-3-(1H-indol-3-yl)-2-[N-(2-((4-phenyl)piperazin-1-yl)acetyl)amino]propane]	1700 nM	1400 nM	
CC(=O)N(Cc1cccc(F)c1)CC(Cc1c[nH]c2ccccc12)NC(=O)CN1CCN(c2ccccc2)CC1 (stereo not drawn) [Example 20]	870 nM	6 nM	
CCOC(=O)N(Cc1ccccc1OC)CC(Cc1c[nH]c2ccccc12)NC(=O)CN1CCN(c2ccccc2)CC1 (stereo not drawn) [Example 28, 1-[N-ethoxycarbonyl-N-(2-methoxybenzyl)amino]-3-(1H-indol-3-yl)-2-[N-(2-((4-phenyl)piperazin-1-yl)acetyl)amino]propane]	1000 nM	1.7 nM	
COc1ccccc1CN(CC(Cc1c[nH]c2ccccc12)NC(=O)CN1CCCCCC1)C(C)=O (stereo not drawn) [Example 61]	940 nM	7.2 nM	
COc1ccccc1CN(CC(Cc1c[nH]c2ccccc12)NC(=O)CCCc1ccccc1)C(C)=O (stereo not drawn) [Example 94]	760 nM	85 nM	
CC(=O)NC(Cc1c[nH]c2ccccc12)CN(Cc1ccccc1)C(=O)CN1CCC(N2CCCCC2)CC1 (stereo not drawn) [Example 108]	3500 nM		NK-1 percent inhibition of binding ([1]; @ 1 μM): 76% @
COc1ccccc1CN(CC(Cc1c[nH]c2ccccc12)NC(=O)c1ccccc1)C(C)=O (stereo not drawn) [Example 88]	5600 nM	120 nM	
CC(=O)NC(Cc1c[nH]c2ccccc12)CN(C(C)=O)C(C)c1ccccc1 (stereo not drawn) [Example 100]			NK-1 percent inhibition of binding ([1]; @ 1 μM): 77% @; NK-2 percent inhibition of binding ([2]; @ 10 μM): 40% @
CC(=O)N(CCc1ccccc1)CC(Cc1c[nH]c2ccccc12)NC(c1ccccc1)(c1ccccc1)c1ccccc1 (stereo not drawn) [Example 168]	> 100000 nM		NK-1 percent inhibition of binding ([1]; @ 5 μM): 13% @
COc1ccccc1CN(CC(Cc1c[nH]c2ccccc12)NC(=O)CCC(=O)c1ccccc1)C(C)=O (racemic) [Example 95]	1000 nM	9.6 nM	
CC(=O)N(Cc1ccccc1Cl)CC(Cc1c[nH]c2ccccc12)NC(c1ccccc1)(c1ccccc1)c1ccccc1 (stereo not drawn) [Example 170]		67 nM	NK-2 percent inhibition of binding ([2]; @ 10 μM): 2% @
CC(=O)N(C)CC(Cc1c[nH]c2ccccc12)NC(c1ccccc1)(c1ccccc1)c1ccccc1 (stereo not drawn) [Example 164]	6200 nM		NK-1 percent inhibition of binding ([1]; @ 5 μM): 0% @ 5 μM
COc1ccccc1CN(CC(NC(=O)CN1CCN(c2ccccc2)CC1)c1ccccc1)C(C)=O (stereo not drawn) [Example 138]	2500 nM	770 nM	
CCN(Cc1ccccc1OC)CC(Cc1c[nH]c2ccccc12)NC(=O)CN1CCN(c2ccccc2)CC1 (stereo not drawn) [Example 9]	640 nM	84 nM	
CN(CC(Cc1c[nH]c2ccccc12)NC(=O)CN1CCN(C2CCCCC2)CC1)C(=O)c1ccccc1 (stereo not drawn) [Example 158]	3800 nM	450 nM	

Compound	IC50 [2]	IC50 [1]	further results
COc1ccccc1CNCC(Cc1c[nH]c2ccc(Br)cc12)NC(=O)CN1CCN(c2ccccc2)CC1 (stereo not drawn) [Example 111]	490 nM	1200 nM	
COc1ccccc1CNCC(Cc1cccc2ccccc12)NC(=O)CN1CCN(c2ccccc2)CC1 (stereo not drawn) [Example 135]	430 nM		NK-1 percent inhibition of binding ([1]; @ 1 μM): 75% @
COC(=O)CC(=O)N(Cc1ccccc1OC)CC(Cc1c[nH]c2ccccc12)NC(=O)CN1CCN(c2ccccc2)CC1 (stereo not drawn) [Example 30]	680 nM	1 nM	
COc1ccccc1CN(CC(Cc1c[nH]c2ccccc12)NC(=O)CNCCNc1ccccc1)C(C)=O (stereo not drawn) [Example 58]	340 nM	14 nM	
COc1ccccc1CN(CC(Cc1c[nH]c2ccccc12)NC(=O)CNCc1cccnc1)C(C)=O (stereo not drawn) [Example 82]	1200 nM	13 nM	
CCCCN(CC(Cc1c[nH]c2ccccc12)NC(c1ccccc1)(c1ccccc1)c1ccccc1)C(C)=O (stereo not drawn) [Example 165]	10400 nM		NK-1 percent inhibition of binding ([1]; @ 5 μM): 3% @ 5 μM
COc1ccccc1CN(CC(Cc1c[nH]c2ccccc12)NC(=O)CN1CCN(c2ccccc2)CC1)C(=O)CNC(=O)OC(C)(C)C (stereo not drawn) [Example 36]	120 nM	10 nM	
CC(C)(C)OC(=O)NCC(=O)N(CC1CCCCC1)CC(Cc1c[nH]c2ccccc12)NC(=O)CN1CCN(c2ccccc2)CC1 (stereo not drawn) [Example 154]	210 nM		NK-1 percent inhibition of binding ([1]; @ 1 μM): 76% @
CCOC(=O)N1CCN(CC(=O)NC(Cc2c[nH]c3ccccc23)CN(Cc2ccccc2OC)C(C)=O)CC1 (stereo not drawn) [Example 80]	3400 nM	19 nM	
COc1ccccc1CNCC(Cc1c[nH]c2ccccc12)NC(=O)CN1CCC(N2CCCCC2)CC1 (stereo not drawn) [Example 45]	5300 nM	65 nM	
COc1ccccc1CN(CC(Cc1c[nH]c2ccccc12)NC(=O)CN1CCCCC1)C(C)=O (stereo not drawn) [Example 60]	3900 nM	24 nM	
COc1ccccc1CN(CC(Cc1c[nH]c2cc(C)ccc12)NC(c1ccccc1)(c1ccccc1)c1ccccc1)C(C)=O (stereo not drawn) [Example 171]			NK-1 percent inhibition of binding ([1]; @ 5 μM): 0% @ 5 μM; NK-2 percent inhibition of binding ([2]; @ 10 μM): 6% @
CN(CC(Cc1c[nH]c2ccccc12)NC(=O)CN1CCN(c2ccccc2)CC1)C(=O)c1ccccc1 (stereo not drawn) [Example 157]	2900 nM		NK-1 percent inhibition of binding ([1]; @ 5 μM): 88% @
COc1ccccc1CN(CC(Cc1cn(C)c2ccccc12)NC(=O)CN1CCN(c2ccccc2)CC1)C(C)=O (stereo not drawn) [Example 113]	1200 nM	7.8 nM	
COc1ccccc1CN(CC(Cc1c[nH]c2cc(C)ccc12)NC(=O)CN1CCC(N2CCCCC2)CC1)C(C)=O (stereo not drawn) [Example 127]	3000 nM	7.3 nM	
CC(=O)N(CC(Cc1c[nH]c2ccccc12)NC(=O)CN1CCC(N2CCCCC2)CC1)C(C)c1ccccc1 (stereo not drawn) [Example 103]	3700 nM	82 nM	
COc1ccccc1CN(CC(CC1CNc2ccccc21)NC(=O)CN1CCN(c2ccccc2)CC1)C(C)=O (mixture of isomers) [Example 144]	1200 nM	52 nM	
COc1ccccc1CN(C[C@H](Cc1c[nH]c2ccccc12)NC(=O)CN1CCN(C2CCCCC2)CC1)C(C)=O [Example 76]	1400 nM	69 nM	
